Measurements: PubChem BioAssay (NCI)
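Five compound concentrations were applied to cells in 96-well plates for 48 hours; endpoints were derived by simple linear interpolation of the resulting dose-response curve. Definition used: TGI = concentration required for complete inhibition of growth.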

Columns and labels:
Test in all cases: DTP human tumour cell line panel, 48 h
786-0 renal = tested on: 786-0 renal
A549 NSCLC = tested on: A549 NSCLC
BT-549 breast = tested on: BT-549 breast
CCRF-CEM leukemia = tested on: CCRF-CEM leukemia
COLO 205 colon = tested on: COLO 205 colon
DU-145 prostate = tested on: DU-145 prostate
EKVX NSCLC = tested on: EKVX NSCLC
HCC-2998 colon = tested on: HCC-2998 colon
HCT-116 colon = tested on: HCT-116 colon
HCT-15 colon = tested on: HCT-15 colon
HL-60(TB) leukemia = tested on: HL-60(TB) leukemia
HOP-62 NSCLC = tested on: HOP-62 NSCLC
HOP-92 NSCLC = tested on: HOP-92 NSCLC
HT29 colon = tested on: HT29 colon
IGROV1 ovarian = tested on: IGROV1 ovarian
K-562 leukemia = tested on: K-562 leukemia
KM12 colon = tested on: KM12 colon
LOX IMVI melanoma = tested on: LOX IMVI melanoma
M14 melanoma = tested on: M14 melanoma
MCF7 breast = tested on: MCF7 breast
MDA-MB-231 breast = tested on: MDA-MB-231 breast
MDA-MB-435 = tested on: MDA-MB-435
MDA-N = tested on: MDA-N
MOLT-4 leukemia = tested on: MOLT-4 leukemia
NCI-H23 lung = tested on: NCI-H23 lung
NCI-H460 lung = tested on: NCI-H460 lung
NCI-H522 lung = tested on: NCI-H522 lung
NCI/ADR-RES ovarian = tested on: NCI/ADR-RES ovarian
OVCAR-3 ovarian = tested on: OVCAR-3 ovarian
OVCAR-4 ovarian = tested on: OVCAR-4 ovarian
OVCAR-5 ovarian = tested on: OVCAR-5 ovarian
OVCAR-8 ovarian = tested on: OVCAR-8 ovarian
PC-3 prostate = tested on: PC-3 prostate
SF-268 CNS = tested on: SF-268 CNS
SF-295 CNS = tested on: SF-295 CNS
SF-539 CNS = tested on: SF-539 CNS
SK-MEL-28 melanoma = tested on: SK-MEL-28 melanoma
SK-MEL-5 melanoma = tested on: SK-MEL-5 melanoma
SK-OV-3 ovarian = tested on: SK-OV-3 ovarian
SN12C renal = tested on: SN12C renal
SNB-19 CNS = tested on: SNB-19 CNS
SNB-75 CNS = tested on: SNB-75 CNS
SR leukemia = tested on: SR leukemia
SW-620 colon = tested on: SW-620 colon
T-47D breast = tested on: T-47D breast
TK-10 renal = tested on: TK-10 renal
U251 CNS = tested on: U251 CNS
UACC-257 melanoma = tested on: UACC-257 melanoma
UACC-62 melanoma = tested on: UACC-62 melanoma
UO-31 renal = tested on: UO-31 renal
ACHN renal = tested on: ACHN renal
CAKI-1 renal = tested on: CAKI-1 renal
MALME-3M melanoma = tested on: MALME-3M melanoma
NCI-H226 lung = tested on: NCI-H226 lung
RXF 393 renal = tested on: RXF 393 renal
SK-MEL-2 melanoma = tested on: SK-MEL-2 melanoma
A498 renal = tested on: A498 renal
RPMI-8226 leukemia = tested on: RPMI-8226 leukemia

Measured: TGI

COc1cccc(-c2nc(-c3cnccn3)n(C3OC(CO)C(O)C3O)n2)c1 (stereo not drawn)
> 100 µM: 786-0 renal | A549 NSCLC | BT-549 breast | CCRF-CEM leukemia | COLO 205 colon | DU-145 prostate | EKVX NSCLC | HCC-2998 colon | HCT-116 colon | HCT-15 colon | HL-60(TB) leukemia | HOP-62 NSCLC | HOP-92 NSCLC | HT29 colon | IGROV1 ovarian | K-562 leukemia | KM12 colon | LOX IMVI melanoma | M14 melanoma | MCF7 breast | MDA-MB-231 breast | MDA-MB-435 | MDA-N | MOLT-4 leukemia | NCI-H23 lung | NCI-H460 lung | NCI-H522 lung | NCI/ADR-RES ovarian | OVCAR-3 ovarian | OVCAR-4 ovarian | OVCAR-5 ovarian | OVCAR-8 ovarian | PC-3 prostate | SF-268 CNS | SF-295 CNS | SF-539 CNS | SK-MEL-28 melanoma | SK-MEL-5 melanoma | SK-OV-3 ovarian | SN12C renal | SNB-19 CNS | SNB-75 CNS | SR leukemia | SW-620 colon | T-47D breast | TK-10 renal | U251 CNS | UACC-257 melanoma | UACC-62 melanoma | UO-31 renal

COC(=O)C1=CC(=O)OC1(OO)c1ccc(Br)cc1 (stereo not drawn)
> 100 µM: 786-0 renal | A549 NSCLC | ACHN renal | BT-549 breast | CAKI-1 renal | CCRF-CEM leukemia | COLO 205 colon | DU-145 prostate | EKVX NSCLC | HCC-2998 colon | HCT-116 colon | HCT-15 colon | HL-60(TB) leukemia | HOP-92 NSCLC | HT29 colon | IGROV1 ovarian | K-562 leukemia | KM12 colon | LOX IMVI melanoma | M14 melanoma | MALME-3M melanoma | MCF7 breast | MDA-MB-231 breast | MDA-MB-435 | MDA-N | MOLT-4 leukemia | NCI-H226 lung | NCI-H23 lung | NCI-H460 lung | NCI-H522 lung | NCI/ADR-RES ovarian | OVCAR-3 ovarian | OVCAR-4 ovarian | OVCAR-5 ovarian | OVCAR-8 ovarian | PC-3 prostate | RXF 393 renal | SF-295 CNS | SF-539 CNS | SK-MEL-2 melanoma | SK-MEL-28 melanoma | SK-MEL-5 melanoma | SK-OV-3 ovarian | SN12C renal | SNB-19 CNS | SNB-75 CNS | SR leukemia | SW-620 colon | T-47D breast | TK-10 renal | U251 CNS | UACC-257 melanoma | UACC-62 melanoma | UO-31 renal

CC1(C)COC(c2ccccc2-c2ccccc2)=N1
> 100 µM: 786-0 renal | A498 renal | A549 NSCLC | ACHN renal | BT-549 breast | CAKI-1 renal | CCRF-CEM leukemia | COLO 205 colon | DU-145 prostate | EKVX NSCLC | HCC-2998 colon | HCT-116 colon | HCT-15 colon | HL-60(TB) leukemia | HOP-62 NSCLC | HOP-92 NSCLC | HT29 colon | IGROV1 ovarian | K-562 leukemia | KM12 colon | M14 melanoma | MALME-3M melanoma | MCF7 breast | MDA-MB-231 breast | MDA-MB-435 | MDA-N | MOLT-4 leukemia | NCI-H226 lung | NCI-H23 lung | NCI-H460 lung | NCI-H522 lung | NCI/ADR-RES ovarian | OVCAR-3 ovarian | OVCAR-4 ovarian | OVCAR-5 ovarian | OVCAR-8 ovarian | PC-3 prostate | RPMI-8226 leukemia | RXF 393 renal | SF-268 CNS | SF-295 CNS | SF-539 CNS | SK-MEL-2 melanoma | SK-MEL-28 melanoma | SK-OV-3 ovarian | SN12C renal | SNB-19 CNS | SR leukemia | SW-620 colon | T-47D breast | U251 CNS | UACC-257 melanoma | UACC-62 melanoma | UO-31 renal
